How the values were obtained:
Conditions in all cases: compound at 10 μM
[1] = target: T1, Human melanin-concentrating hormone (MCH1) (Homo sapiens, UniProt Q99705); assay: Radioligand binding, human melanin-concentrating hormone MCH1 membranes, FlashPlate, [125I]-S36057
T1 construct: purchased Perkin Elmer Biosignal
How it was run: (§1)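 Cloned human receptor membranes were coated onto FlashPlate wells and incubated with radioligand and compound (added from a 0.5 mM DMSO daughter plate) for 1 hour at room temperature in the dark. Scintillation counting gave percent inhibition, with DMSO defining total and reference ligand defining non-specific binding.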

Human neurokinin (NK1) = target: T2, Human neurokinin (NK1) (Homo sapiens, UniProt P25103); assay: Radioligand binding, human neurokinin NK1 membranes, filtration, [125I]-Substance P
T2 construct: purchased Perkin Elmer Biosignal
T2 sequence (P25103 whole entry): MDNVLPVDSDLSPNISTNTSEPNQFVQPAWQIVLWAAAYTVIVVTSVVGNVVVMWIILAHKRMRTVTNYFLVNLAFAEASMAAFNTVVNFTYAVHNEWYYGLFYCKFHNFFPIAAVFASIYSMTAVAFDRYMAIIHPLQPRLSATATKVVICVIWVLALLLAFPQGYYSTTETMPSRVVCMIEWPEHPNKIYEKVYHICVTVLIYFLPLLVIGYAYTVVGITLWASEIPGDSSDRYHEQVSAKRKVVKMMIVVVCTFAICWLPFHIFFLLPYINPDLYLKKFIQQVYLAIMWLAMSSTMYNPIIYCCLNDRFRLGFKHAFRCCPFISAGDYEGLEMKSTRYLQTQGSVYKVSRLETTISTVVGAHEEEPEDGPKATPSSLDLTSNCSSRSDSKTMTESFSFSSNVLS
How it was run: (§2)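 Filtration binding on cloned human receptor membranes (1 Unit/well), [125I]-Substance P for NK1 and [3H]-Diprenorphine for KOP, 1 h at room temperature. Filters PEI-presoaked, washed with cold 50 mM Tris-HCl pH 7.4, counted by scintillation; percent inhibition calculated, reference ligand defining non-specific binding.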

Human μ-opioid (MOP) = target: T3, Human μ-opioid (MOP) (Homo sapiens, UniProt P35372); assay: Radioligand binding, human μ-opioid (MOP) membranes, FlashPlate, [3H]-Naloxone
T3 construct: purchased Perkin Elmer Biosignal
T3 sequence (P35372 whole entry): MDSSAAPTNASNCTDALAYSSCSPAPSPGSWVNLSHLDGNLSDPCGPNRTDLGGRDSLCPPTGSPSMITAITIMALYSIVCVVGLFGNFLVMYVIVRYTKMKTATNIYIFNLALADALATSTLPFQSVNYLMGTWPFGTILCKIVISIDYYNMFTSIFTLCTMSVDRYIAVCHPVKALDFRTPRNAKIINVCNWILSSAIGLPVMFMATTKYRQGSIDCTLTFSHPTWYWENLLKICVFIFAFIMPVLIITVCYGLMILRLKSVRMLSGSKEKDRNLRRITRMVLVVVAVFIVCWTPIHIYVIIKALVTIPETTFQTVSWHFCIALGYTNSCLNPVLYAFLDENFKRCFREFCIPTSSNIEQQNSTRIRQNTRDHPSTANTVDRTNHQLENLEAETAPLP
How it was run: as §1

Human κ-Opioid (KOP) = target: T4, Human κ-Opioid (KOP) (Homo sapiens, UniProt P41145); assay: Radioligand binding, human κ-opioid (KOP) membranes, filtration, [3H]-Diprenorphine
T4 construct: purchased Perkin Elmer Biosignal
T4 sequence (P41145 whole entry): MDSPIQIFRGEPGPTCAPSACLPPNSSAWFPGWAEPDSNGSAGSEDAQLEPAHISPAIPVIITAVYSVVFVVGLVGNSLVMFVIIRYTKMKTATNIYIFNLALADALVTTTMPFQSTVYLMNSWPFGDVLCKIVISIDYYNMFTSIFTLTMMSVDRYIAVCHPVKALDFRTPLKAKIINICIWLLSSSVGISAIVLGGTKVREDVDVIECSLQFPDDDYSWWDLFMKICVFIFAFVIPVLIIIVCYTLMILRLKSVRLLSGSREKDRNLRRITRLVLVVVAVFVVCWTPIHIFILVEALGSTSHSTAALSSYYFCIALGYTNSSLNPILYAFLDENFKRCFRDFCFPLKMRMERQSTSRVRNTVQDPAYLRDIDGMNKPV
How it was run: as §2

Human Melanocortin (MC3) = target: T5, Human Melanocortin (MC3) (Homo sapiens, UniProt P41968); assay: Radioligand binding, human melanocortin MC3 membranes, FlashPlate, [125I]-NDP-αMSH
T5 construct: purchased Perkin Elmer Biosignal
T5 sequence (P41968 whole entry): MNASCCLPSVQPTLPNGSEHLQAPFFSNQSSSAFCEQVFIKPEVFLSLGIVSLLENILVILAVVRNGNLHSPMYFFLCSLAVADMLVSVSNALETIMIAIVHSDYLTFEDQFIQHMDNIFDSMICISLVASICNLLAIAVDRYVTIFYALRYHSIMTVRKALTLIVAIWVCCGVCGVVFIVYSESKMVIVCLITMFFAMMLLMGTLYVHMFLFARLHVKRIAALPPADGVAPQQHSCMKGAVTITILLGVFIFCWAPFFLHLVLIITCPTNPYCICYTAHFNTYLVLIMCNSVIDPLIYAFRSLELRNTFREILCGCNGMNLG
How it was run: as §1

Human opioid (ORL1) = target: T6, Human opioid (ORL1) (Homo sapiens, UniProt P41146); assay: Radioligand binding, human opioid ORL1 membranes, FlashPlate, [125I]-Nociceptin
T6 construct: purchased Perkin Elmer Biosignal
T6 sequence (P41146 whole entry): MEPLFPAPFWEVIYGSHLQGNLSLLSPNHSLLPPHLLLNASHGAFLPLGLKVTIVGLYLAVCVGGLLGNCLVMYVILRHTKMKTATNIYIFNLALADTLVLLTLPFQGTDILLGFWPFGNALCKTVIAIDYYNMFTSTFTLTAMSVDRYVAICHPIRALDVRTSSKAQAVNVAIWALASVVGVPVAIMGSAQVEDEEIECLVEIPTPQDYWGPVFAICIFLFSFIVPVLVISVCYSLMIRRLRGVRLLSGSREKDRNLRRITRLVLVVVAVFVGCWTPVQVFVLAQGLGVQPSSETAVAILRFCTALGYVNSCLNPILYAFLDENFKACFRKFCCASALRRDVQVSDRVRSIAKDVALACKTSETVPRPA
How it was run: as §1

Mouse urotensin (mUR2) = target: T7, Mouse urotensin (mUR2) (Mus musculus, UniProt Q8VIH9); assay: Radioligand binding, mouse urotensin mUR2 membranes, FlashPlate, [125I]-Urotensin II
T7 construct: purchased Perkin Elmer Biosignal
T7 sequence (Q8VIH9 1-385): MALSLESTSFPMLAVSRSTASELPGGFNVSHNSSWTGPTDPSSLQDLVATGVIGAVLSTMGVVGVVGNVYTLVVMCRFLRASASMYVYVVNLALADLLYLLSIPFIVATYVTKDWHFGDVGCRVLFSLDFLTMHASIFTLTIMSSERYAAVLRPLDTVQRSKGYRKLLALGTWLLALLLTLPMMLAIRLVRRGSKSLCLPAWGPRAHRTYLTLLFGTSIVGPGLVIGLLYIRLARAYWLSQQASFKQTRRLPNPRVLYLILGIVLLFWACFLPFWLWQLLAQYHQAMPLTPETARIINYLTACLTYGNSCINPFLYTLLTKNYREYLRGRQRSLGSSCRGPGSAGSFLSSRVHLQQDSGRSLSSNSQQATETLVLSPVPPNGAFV
How it was run: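 Cloned mouse urotensin (mUR2) receptor membranes from Perkin Elmer Biosignal were immobilized in FlashPlate microplates using a proprietary coating. Each well got 19.5 μl buffer, then 0.5 μl of DMSO, reference ligand, or compound. Adding 5 μl of [125I]-Urotensin II, diluted to 5× final concentration in binding buffer, started binding. Plates were sealed with TopSeal-A and incubated 1 hour at room temperature in the dark. Wells were counted for 30 seconds each on a TopCount after a 60-second delay, and percentage inhibition was calculated.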

[2] = target: T8, Human neuropeptide Y (NPY-Y1) (Homo sapiens, UniProt P25929); assay: Radioligand binding, human neuropeptide Y NPY-Y1 membranes, FlashPlate, [125I]-PYY
T8 construct: purchased Perkin Elmer Biosignal
T8 sequence (P25929 1-384): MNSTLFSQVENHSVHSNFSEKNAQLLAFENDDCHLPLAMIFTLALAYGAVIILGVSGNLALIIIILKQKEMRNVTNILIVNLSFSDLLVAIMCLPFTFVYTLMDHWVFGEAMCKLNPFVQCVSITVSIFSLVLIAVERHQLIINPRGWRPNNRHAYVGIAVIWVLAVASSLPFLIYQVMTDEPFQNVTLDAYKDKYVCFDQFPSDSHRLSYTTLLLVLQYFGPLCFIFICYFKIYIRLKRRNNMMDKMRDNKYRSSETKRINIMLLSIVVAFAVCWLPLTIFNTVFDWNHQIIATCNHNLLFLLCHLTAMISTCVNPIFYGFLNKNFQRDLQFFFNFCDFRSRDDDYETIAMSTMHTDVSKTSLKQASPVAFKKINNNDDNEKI
How it was run: as §1

Human melanocortin (MC5) = target: T9, Human melanocortin (MC5) (Homo sapiens, UniProt P33032); assay: Radioligand binding, human melanocortin MC5 membranes, FlashPlate, [125I]-NDP-αMSH
T9 construct: purchased Perkin Elmer Biosignal
T9 sequence (P33032 whole entry): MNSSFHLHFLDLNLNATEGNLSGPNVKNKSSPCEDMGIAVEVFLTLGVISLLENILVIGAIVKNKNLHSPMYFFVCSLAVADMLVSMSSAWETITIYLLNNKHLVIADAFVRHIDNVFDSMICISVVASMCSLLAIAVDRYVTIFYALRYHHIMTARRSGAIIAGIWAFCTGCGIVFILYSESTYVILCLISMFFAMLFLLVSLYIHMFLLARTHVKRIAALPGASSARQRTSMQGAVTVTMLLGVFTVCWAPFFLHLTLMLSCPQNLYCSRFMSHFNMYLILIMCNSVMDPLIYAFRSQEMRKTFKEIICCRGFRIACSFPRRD
How it was run: as §1

Human Melanocortin (MC4) = target: T10, Human Melanocortin (MC4) (Homo sapiens, UniProt P32245); assay: Radioligand binding, human melanocortin MC4 membranes, FlashPlate, [125I]-NDP-αMSH
T10 construct: purchased Perkin Elmer Biosignal
T10 sequence (P32245 whole entry): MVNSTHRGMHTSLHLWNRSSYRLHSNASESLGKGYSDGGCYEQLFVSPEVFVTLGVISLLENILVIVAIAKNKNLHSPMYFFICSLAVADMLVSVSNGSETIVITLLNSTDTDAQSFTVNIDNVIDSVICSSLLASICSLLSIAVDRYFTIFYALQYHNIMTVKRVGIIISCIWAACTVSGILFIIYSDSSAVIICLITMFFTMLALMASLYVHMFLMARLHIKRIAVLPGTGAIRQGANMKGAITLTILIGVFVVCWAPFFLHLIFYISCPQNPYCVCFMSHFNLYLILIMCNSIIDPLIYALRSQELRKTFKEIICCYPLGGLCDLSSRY
How it was run: as §1

Human δ-opioid (DOP) = target: T11, Human δ-opioid (DOP) (Homo sapiens, UniProt P41143); assay: Radioligand binding, human δ-opioid (DOP) membranes, FlashPlate, [3H]-Bremazocine
T11 construct: purchased Perkin Elmer Biosignal
T11 sequence (P41143 whole entry): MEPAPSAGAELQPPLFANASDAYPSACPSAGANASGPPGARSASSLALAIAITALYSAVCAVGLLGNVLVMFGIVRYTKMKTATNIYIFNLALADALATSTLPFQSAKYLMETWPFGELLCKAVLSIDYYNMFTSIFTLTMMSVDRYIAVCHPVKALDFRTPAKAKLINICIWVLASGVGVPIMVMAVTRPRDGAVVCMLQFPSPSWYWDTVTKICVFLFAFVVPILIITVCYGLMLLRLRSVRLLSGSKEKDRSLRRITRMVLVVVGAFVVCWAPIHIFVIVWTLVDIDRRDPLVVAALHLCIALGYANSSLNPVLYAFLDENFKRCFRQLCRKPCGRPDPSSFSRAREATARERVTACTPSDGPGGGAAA
How it was run: as §1

T1 sequence (Q99705 whole entry): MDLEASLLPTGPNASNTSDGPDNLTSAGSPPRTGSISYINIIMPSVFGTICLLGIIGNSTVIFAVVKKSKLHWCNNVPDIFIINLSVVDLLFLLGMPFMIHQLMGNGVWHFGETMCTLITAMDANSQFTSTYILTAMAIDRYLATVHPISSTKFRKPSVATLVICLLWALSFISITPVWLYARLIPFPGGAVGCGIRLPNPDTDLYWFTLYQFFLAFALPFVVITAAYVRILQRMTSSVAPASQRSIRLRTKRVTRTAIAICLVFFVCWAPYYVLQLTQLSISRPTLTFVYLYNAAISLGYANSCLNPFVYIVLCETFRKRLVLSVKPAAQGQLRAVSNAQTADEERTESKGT

COC[C@H]1OC(OCc2ccc(-c3ccccc3)cc2)[C@H](NC(=O)CCCNC(=N)N)[C@@H](OCc2ccccc2)[C@@H]1O (stereo partly drawn) [compound 8]
A6 radioligand binding inhibition ([1]; human MCH1 membranes, 10 µM): + (“+” indicates greater than 50% inhibition at 10 μM)
A8 radioligand binding inhibition (Human neurokinin (NK1); human neurokinin NK1 membranes): + (“+” indicates greater than 50% inhibition at 10 μM)
A7 radioligand binding inhibition (Human μ-opioid (MOP); human μ-opioid (MOP) membranes): − (“−” indicates less than 50% inhibition at 10 μM)
A2 radioligand binding inhibition (Human κ-Opioid (KOP); human κ-opioid (KOP) membranes): − (“−” indicates less than 50% inhibition at 10 μM)
A3 radioligand binding inhibition (Human Melanocortin (MC3); human melanocortin MC3 membranes): − (“−” indicates less than 50% inhibition at 10 μM)
A10 radioligand binding inhibition (Human opioid (ORL1); human ORL1 membranes): − (“−” indicates less than 50% inhibition at 10 μM)
A11 radioligand binding inhibition (Mouse urotensin (mUR2); mouse urotensin mUR2 membranes): − (“−” indicates less than 50% inhibition at 10 μM)
A9 radioligand binding inhibition ([2]; human NPY-Y1 membranes): − (“−” indicates less than 50% inhibition at 10 μM)
A5 radioligand binding inhibition (Human melanocortin (MC5); human melanocortin MC5 membranes): − (“−” indicates less than 50% inhibition at 10 μM)
A4 radioligand binding inhibition (Human Melanocortin (MC4); human melanocortin MC4 membranes): − (“−” indicates less than 50% inhibition at 10 μM)
A1 radioligand binding inhibition (Human δ-opioid (DOP); human δ-opioid (DOP) membranes): − (“−” indicates less than 50% inhibition at 10 μM)

CO[C@H]1[C@H](O)[C@@H](COCc2ccccc2)OC(OCCNC(=N)N)[C@@H]1NC(=O)c1c[nH]c2ccccc12 (stereo partly drawn) [compound 125]
A6 radioligand binding, percentage inhibition ([1]; [125I]-S36057): − (“−” indicates less than 50% inhibition at 10 μM)
A8 radioligand binding, percentage inhibition (Human neurokinin (NK1); [125I]-Substance P): + (“+” indicates greater than 50% inhibition at 10 μM)
A7 radioligand binding, percentage inhibition (Human μ-opioid (MOP); [3H]-Naloxone): − (“−” indicates less than 50% inhibition at 10 μM)
A2 radioligand binding, percentage inhibition (Human κ-Opioid (KOP); [3H]-Diprenorphine): − (“−” indicates less than 50% inhibition at 10 μM)
A3 radioligand binding, percentage inhibition (Human Melanocortin (MC3); [125I]-NDP-αMSH): − (“−” indicates less than 50% inhibition at 10 μM)
A10 radioligand binding, percentage inhibition (Human opioid (ORL1); [125I]-Nociceptin): − (“−” indicates less than 50% inhibition at 10 μM)
A11 radioligand binding, percentage inhibition (Mouse urotensin (mUR2); [125I]-Urotensin II): − (“−” indicates less than 50% inhibition at 10 μM)
A9 radioligand binding, percentage inhibition ([2]; [125I]-PYY): − (“−” indicates less than 50% inhibition at 10 μM)
A5 radioligand binding, percentage inhibition (Human melanocortin (MC5); [125I]-NDP-αMSH): − (“−” indicates less than 50% inhibition at 10 μM)
A4 radioligand binding, percentage inhibition (Human Melanocortin (MC4); [125I]-NDP-αMSH): − (“−” indicates less than 50% inhibition at 10 μM)
A1 radioligand binding, percentage inhibition (Human δ-opioid (DOP); [3H]-Bremazocine): − (“−” indicates less than 50% inhibition at 10 μM)

N=C(N)NCCC(=O)N[C@H]1C(OCc2ccc(Cl)cc2)O[C@H](COCc2ccc(Cl)cc2)[C@@H](O)[C@@H]1OCc1ccc(Cl)cc1 (stereo partly drawn) [compound 527]
A6: inhibition of radioligand binding, human melanin-concentrating hormone (MCH1) ([1]; [125I]-S36057): + (“+” indicates greater than 50% inhibition at 10 μM)
A8: inhibition of radioligand binding, human neurokinin (NK1) (Human neurokinin (NK1); [125I]-Substance P): + (“+” indicates greater than 50% inhibition at 10 μM)
A7: inhibition of radioligand binding, human μ-opioid (MOP) (Human μ-opioid (MOP); [3H]-Naloxone): − (“−” indicates less than 50% inhibition at 10 μM)
A2: inhibition of radioligand binding, human κ-opioid (KOP) (Human κ-Opioid (KOP); [3H]-Diprenorphine, 10 µM): + (“+” indicates greater than 50% inhibition at 10 μM)
A3: inhibition of radioligand binding, human melanocortin (MC3) (Human Melanocortin (MC3); [125I]-NDP-αMSH, 10 µM): + (“+” indicates greater than 50% inhibition at 10 μM)
A10: inhibition of radioligand binding, human opioid (ORL1) (Human opioid (ORL1); [125I]-Nociceptin): − (“−” indicates less than 50% inhibition at 10 μM)
A11: inhibition of radioligand binding, mouse urotensin (mUR2) (Mouse urotensin (mUR2); [125I]-Urotensin II): − (“−” indicates less than 50% inhibition at 10 μM)
A9: inhibition of radioligand binding, human neuropeptide Y (NPY-Y1) ([2]; [125I]-PYY): − (“−” indicates less than 50% inhibition at 10 μM)
A5: inhibition of radioligand binding, human melanocortin (MC5) (Human melanocortin (MC5); [125I]-NDP-αMSH): + (“+” indicates greater than 50% inhibition at 10 μM)
A4: inhibition of radioligand binding, human melanocortin (MC4) (Human Melanocortin (MC4); [125I]-NDP-αMSH, 10 µM): + (“+” indicates greater than 50% inhibition at 10 μM)
A1: inhibition of radioligand binding, human δ-opioid (DOP) (Human δ-opioid (DOP); [3H]-Bremazocine): − (“−” indicates less than 50% inhibition at 10 μM)

— patent US20080009418A1, “Selective Inhibitors” (Alchemia LTD., priority 2004, published 2008)
